Results: patent publication US20080268477A1, “Antibody Reactive Specifically to Age Derived from 3,4-Dge” (JMS CO., LTD., priority 2005, published 2008)

What was measured:
[1] = system: Human peritoneal mesothelial cells (HPMCs); assay: cytotoxic test of AGE-proteins (WST-1); type: cell-based; settings: 1 mg/mL AGE-protein, four days
Procedure: In order to examine the biological activities of AGE-proteins derived from various carbonyl compounds, a cytotoxic test was carried out. The AGE-proteins used herein were 3,4-DGE-BSA, MGO-BSA, GO-BSA, and AA-BSA that had been prepared in the same manner as in Example 3.
Human peritoneal mesothelial cells (HPMCs) that had been suspended in FBS-M199 medium were seeded into a 96-well plate (manufactured by Iwaki) in an amount of 3400 cells/well and then were cultured overnight. Adherent cells in each well were exposed to M199 medium (0.1 ml/well) containing 8.4% FBS in which AGE-proteins had been dissolved in such a manner as to be 1 mg/mL, and were cultured for four days. After completion of the exposure, the medium was removed. Thereafter, the adherent cells were cultured in M199 medium containing a 10% chromogenic substrate (Trade Name: WST-1; manufactured by TAKARA BIO, INC.). Then the absorbance at a wavelength of 450 nm was measured 40 minutes later and thereby the viable cell count was determined. The result is shown in the graph in FIG. 15. In FIG. 15, “DGE-BSA” denotes “3,4-DGE-BSA”.

[2] = target: T1, BSA (Bos taurus, UniProt P02769); assay: appearance (browning) of reaction solution of carbonyl compound and BSA; set-up: species or system bovine; settings: 25 mM carbonyl compound, BSA 5 mg/ml, 37° C.; for browning of reaction solution: 168 hours
T1 construct: purchased SIGMA A-0281
Procedure: AGEs were formed from proteins, BSA, using carbonyl compounds (3,4-DGE, MGO, GO, 3-DG, and Glu). First, BSA (manufactured by SIGMA; Trade Name: A-0281) was dissolved in PBS (pH 7.4) so as to have a concentration of 5 mg/ml (6.2 mM of basic amino acid residues). Thus a BSA solution was prepared. Then each carbonyl compound was added to the BSA solution so as to have a concentration of 25 mM (4-equivalent relative to the basic amino acid residues in the BSA). This was incubated at 37° C. for predetermined times (2, 4, 8, 24, 72, and 168 hours). The respective carbonyl compounds used herein were 500 mM 3,4-DGE aqueous solution (prepared in house), 40% MGO aqueous solution (manufactured by SIGMA), 40% GO aqueous solution (manufactured by Wako Pure Chemical Industries, Ltd.), 3-DG (manufactured by Dojindo Laboratories Co., Ltd.), and Glu (Pharmacopeia, manufactured by San-ei Sucrochemical Co, Ltd.). The BSA solution was incubated in the same manner as described above, with no carbonyl compounds being added thereto. This was used as a control. The appearances of the reaction solutions obtained after 168 hours incubation are shown in the photograph in FIG. 9.

[3] = target: T1, BSA; assay: fluorescence intensity of reaction solution of carbonyl compound and BSA (Reference Example 1); set-up: species or system bovine; settings: excitation 360 nm, fluorescence 430 nm
Procedure: AGEs were formed from proteins, BSA, using carbonyl compounds (3,4-DGE, MGO, GO, 3-DG, and Glu). First, BSA (manufactured by SIGMA; Trade Name: A-0281) was dissolved in PBS (pH 7.4) so as to have a concentration of 5 mg/ml (6.2 mM of basic amino acid residues). Thus a BSA solution was prepared. Then each carbonyl compound was added to the BSA solution so as to have a concentration of 25 mM (4-equivalent relative to the basic amino acid residues in the BSA). This was incubated at 37° C. for predetermined times (2, 4, 8, 24, 72, and 168 hours). […]
The reaction solutions incubated as described above were sampled and these reaction solutions thus sampled were applied to desalting columns (Trade Name: PD-10, manufactured by Amersham Pharmacia Biotech) to be desalted. With respect to the reaction solutions thus desalted, the BSA concentration was measured using BCA protein assay kit (manufactured by Pierce). […] Then the fluorescence intensity was measured at an excitation wavelength of 360 nm and a fluorescence wavelength of 430 nm (measuring apparatus: Trade Name SPECTRAFLUOR PLUS, manufactured by TECAN). […]

[4] = target: T1, BSA; assay: ELISA for known AGEs (pentosidine, CML, MRX) in reaction product; set-up: species or system bovine
Procedure: With respect to the above-mentioned sample solutions obtained using the carbonyl compounds (3,4-DGE, 3-DG, GO, and MGO), it was evaluated by ELISA whether pentosidine, carboxymethyllysine (CML), and Maillard reaction products (MRX: 8-hydroxy-5-methyldihydrothiazolo[3,2-alpha]) that were known AGEs had been produced or not. As a result, in the reaction solution obtained using GO, production of CML of 3.025 molecules per BSA molecule was found already after 24 hours incubation and production of CML of 3.7 molecules per BSA molecule was found after 168 hours incubation. In the reaction solution obtained using MGO, pentosidine of 0.0028 molecule per BSA molecule was found after 168 hours incubation. […] Accordingly, it can be said that the AGEs formed with 3,4-DGE are clearly different from conventionally known AGEs.

[5] = target: T1, BSA; assay: amino acid analysis of Arg and Lys residues in reaction product; set-up: species or system bovine; settings: residual ratio vs untreated native BSA
Procedure: The aforementioned sample solutions were freeze-dried and then were acid-hydrolyzed in 6N hydrochloric acid (120° C., 24 hours). According to a conventionally known method, these were derivatized with dansyl chloride and were isolated with HPLC. Then the amounts of arginine (Arg) and lysine (Lys) residues in the samples were determined (n=3). FIG. 11(A) is a graph showing the residual ratios of the Arg residues, while FIG. 11(B) is a graph showing the residual ratios of the Lys residues. The residual ratio indicates a percentage that is obtained with the amount of residues in untreated native BSA being taken as 100%.

[6] = target: T1, BSA; assay: isoelectric focusing of reaction product; set-up: species or system bovine; settings: reaction product with BSA
Procedure: A pI marker was electrophoresed beforehand and then a calibration curve between pI and mobility was created. Then the aforementioned sample solutions also were electrophoresed. With a region stained deepest in each sample being taken as the center of the band, the isoelectric point was calculated using the calibration curve.

[7] = target: T1, BSA; assay: SDS-PAGE of reaction product; set-up: species or system bovine; settings: samples of 2 to 168 hours reaction
Procedure: The samples obtained using 3,4-DGE and MGO each were subjected to SDS-PAGE. The results are shown in the electrophoretograms in FIG. 13. […] The lanes show the results with respect to the molecular-weight marker, native BSA, and samples (2, 4, 8, 24, 72, and 168 hours) sequentially from the left.

[8] = target: T1, BSA; assay: reactivity with protein by fluorescence intensity (Reference Example 2); set-up: species or system bovine; settings: 30 mmol/L carbonyl compound, BSA 10 mg/ml, 37° C., 24 hours
Procedure: BSA was dissolved in PBS (pH 7.4) so as to be 10 mg/ml. Various carbonyl compounds each were added thereto in such a manner as to have a concentration of 30 mmol/L. Then they were allowed to react at 37° C. for 24 hours. After the reaction, denaturation (AGE formation) of the BSA was evaluated according to the fluorescence intensity (at an excitation wavelength of 360 nm and a fluorescence wavelength of 430 nm) of the reaction solutions.

T1 sequence (P02769 25-607): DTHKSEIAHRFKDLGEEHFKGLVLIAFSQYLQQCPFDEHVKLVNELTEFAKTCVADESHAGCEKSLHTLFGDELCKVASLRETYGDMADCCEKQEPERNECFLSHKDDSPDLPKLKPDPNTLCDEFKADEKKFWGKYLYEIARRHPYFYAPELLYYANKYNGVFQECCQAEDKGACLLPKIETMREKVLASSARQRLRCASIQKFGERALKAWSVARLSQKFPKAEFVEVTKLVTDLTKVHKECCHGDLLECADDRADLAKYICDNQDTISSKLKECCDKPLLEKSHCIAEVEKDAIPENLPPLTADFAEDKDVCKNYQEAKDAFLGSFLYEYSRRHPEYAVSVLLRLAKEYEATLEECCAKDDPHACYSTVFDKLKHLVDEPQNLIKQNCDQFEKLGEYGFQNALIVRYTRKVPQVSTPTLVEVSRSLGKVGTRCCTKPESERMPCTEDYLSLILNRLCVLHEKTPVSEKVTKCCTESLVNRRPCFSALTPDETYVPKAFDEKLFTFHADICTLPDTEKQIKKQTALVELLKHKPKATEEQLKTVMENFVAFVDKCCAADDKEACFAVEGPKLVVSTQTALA

3,4-DGE-BSA: AGE-protein formed from bovine serum albumin with 3,4-DGE
activity of the cells (viable cell count) [1]: approximately 25%

O=CC(=O)C=CC(O)CO (stereo not shown) [3,4-DGE, 3,4-dideoxyglucosone-3-ene]
time until reaction solution was colored [2]: approximately two | browning of reaction solution [2]: deep brown | reaction time at which fluorescence nearly achieved equilibrium [3]: ~24 h | fluorescence intensity ([3]; compared to other carbonyl compounds): very high fluorescence intensity | production of CML, pentosidine, MRX ([4]; ELISA of reaction solution): production of neither CML, pentosidine, or MRX was found | free Arg and Lys residues in reaction product [5]: reduced | change in isoelectric point [6]: shift toward the acidic side after 24 hours reaction | change in SDS-PAGE band [7]: disturbance in the band is observed after 2 to 4 hours reaction | fluorescence of BSA solution (AGE formation) [8]: very strong fluorescence

O=CC(=O)C[C@H](O)[C@H](O)CO [Example 3-DG, 3-deoxyglucosone]
browning of reaction solution [2]: observed

O=CC=O [GO, glyoxal]
browning of reaction solution [2]: observed | production of CML ([4]; after 24 hours incubation): 3.025 molecules per BSA molecule | production of CML ([4]; after 168 hours incubation): 3.7 molecules per BSA molecule

CC(=O)C=O [MGO, methylglyoxal]
browning of reaction solution [2]: observed | pentosidine ([4]; after 168 hours incubation): 0.0028 molecule per BSA molecule
